From ChEMBL document CHEMBL2074475, “Uptake of enalapril and expression of organic anion transporting polypeptide 1 in zonal, isolated rat hepatocytes” (Drug Metab Dispos, 2000)

How the values were obtained:
Format in all cases: functional, cell-based
[1] = target: T1, Solute carrier organic anion transporter family member 1A1 (Rattus norvegicus, UniProt P46720); test: TP_TRANSPORTER: uptake in Oatp1-expressing HeLa cells; details: human
T1 sequence (P46720 whole entry): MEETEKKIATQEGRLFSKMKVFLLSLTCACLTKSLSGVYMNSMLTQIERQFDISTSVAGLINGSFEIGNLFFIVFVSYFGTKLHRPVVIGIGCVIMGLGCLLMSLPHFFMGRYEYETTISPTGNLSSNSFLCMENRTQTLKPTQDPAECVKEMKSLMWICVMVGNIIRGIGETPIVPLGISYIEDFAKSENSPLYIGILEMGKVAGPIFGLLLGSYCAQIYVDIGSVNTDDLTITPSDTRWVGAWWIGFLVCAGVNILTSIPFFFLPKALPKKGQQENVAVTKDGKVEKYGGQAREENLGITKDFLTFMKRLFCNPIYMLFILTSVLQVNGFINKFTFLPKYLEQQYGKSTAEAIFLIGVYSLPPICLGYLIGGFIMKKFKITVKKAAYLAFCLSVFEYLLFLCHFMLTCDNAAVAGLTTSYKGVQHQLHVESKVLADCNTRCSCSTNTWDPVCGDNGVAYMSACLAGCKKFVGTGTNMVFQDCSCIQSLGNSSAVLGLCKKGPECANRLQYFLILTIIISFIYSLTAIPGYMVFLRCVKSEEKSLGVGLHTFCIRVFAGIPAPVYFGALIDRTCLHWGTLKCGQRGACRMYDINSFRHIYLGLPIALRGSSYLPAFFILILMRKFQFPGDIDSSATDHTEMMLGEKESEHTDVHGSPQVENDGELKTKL

[2] = target: T2, Solute carrier organic anion transporter family member 1A4 (Rattus norvegicus, UniProt O35913); test: TP_TRANSPORTER: uptake in Oatp2-expressing HeLa cells; details: human
T2 sequence (O35913 whole entry): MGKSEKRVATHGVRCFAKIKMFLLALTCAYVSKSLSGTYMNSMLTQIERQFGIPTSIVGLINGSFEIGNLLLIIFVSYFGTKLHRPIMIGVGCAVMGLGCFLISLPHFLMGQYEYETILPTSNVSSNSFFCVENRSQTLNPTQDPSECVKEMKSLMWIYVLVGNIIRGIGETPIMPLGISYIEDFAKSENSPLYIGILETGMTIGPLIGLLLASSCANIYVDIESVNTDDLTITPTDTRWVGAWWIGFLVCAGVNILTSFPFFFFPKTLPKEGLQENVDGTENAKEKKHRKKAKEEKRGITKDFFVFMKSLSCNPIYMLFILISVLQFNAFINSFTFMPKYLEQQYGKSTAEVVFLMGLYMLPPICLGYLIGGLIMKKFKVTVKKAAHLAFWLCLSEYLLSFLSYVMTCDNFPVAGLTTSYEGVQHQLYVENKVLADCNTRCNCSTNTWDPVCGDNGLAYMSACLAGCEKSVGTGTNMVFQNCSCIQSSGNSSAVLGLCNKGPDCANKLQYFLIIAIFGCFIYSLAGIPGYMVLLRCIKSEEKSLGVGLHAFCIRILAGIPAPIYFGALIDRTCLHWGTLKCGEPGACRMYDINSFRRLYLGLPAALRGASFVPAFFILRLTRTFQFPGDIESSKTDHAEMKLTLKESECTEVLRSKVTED

[3] = target: T3, Solute carrier organic anion transporter family member 1A2 (Homo sapiens, UniProt P46721); test: TP_TRANSPORTER: uptake in OATP-expressing HeLa cells
T3 sequence (P46721 whole entry): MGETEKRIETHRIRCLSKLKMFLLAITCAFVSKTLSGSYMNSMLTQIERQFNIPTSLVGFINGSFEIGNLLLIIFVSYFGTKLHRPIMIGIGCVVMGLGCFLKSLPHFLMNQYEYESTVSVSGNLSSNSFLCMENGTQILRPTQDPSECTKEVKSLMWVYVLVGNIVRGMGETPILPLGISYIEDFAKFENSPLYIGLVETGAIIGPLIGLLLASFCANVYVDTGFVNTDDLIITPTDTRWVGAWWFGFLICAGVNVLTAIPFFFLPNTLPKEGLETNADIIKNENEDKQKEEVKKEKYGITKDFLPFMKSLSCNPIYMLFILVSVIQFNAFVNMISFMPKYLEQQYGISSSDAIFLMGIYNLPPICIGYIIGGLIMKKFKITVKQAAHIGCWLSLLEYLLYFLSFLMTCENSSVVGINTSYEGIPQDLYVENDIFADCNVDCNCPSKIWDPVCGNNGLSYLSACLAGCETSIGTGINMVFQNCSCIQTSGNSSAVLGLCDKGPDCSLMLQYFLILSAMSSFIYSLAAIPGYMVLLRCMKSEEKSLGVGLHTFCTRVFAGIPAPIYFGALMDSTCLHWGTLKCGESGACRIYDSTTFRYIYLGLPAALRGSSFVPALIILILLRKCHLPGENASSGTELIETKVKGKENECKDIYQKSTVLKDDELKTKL

Activity [1]: substrate [+]
Activity [2]: is not a substrate [-]
Activity [3]: is not a substrate [-]
Compound: CCOC(=O)[C@H](CCc1ccccc1)N[C@@H](C)C(=O)N1CCC[C@H]1C(=O)O [ENALAPRIL]
